Columns and labels:
in vivo = conditions: rats, intraperitoneal; for ED50 at 6 h: rat, in vivo, ip, observed every 30 minutes over a 6-hour period, cataleptic = homolateral extremities crossed at least 10 seconds, read-out: ED50 (dose at which 50% of the animals are cataleptic); for cataleptic effect (in words): in comparison to chlorpromazine
Protocol: The following compounds were tested:
The foregoing compounds were compared to chlorpromazine, a well-known central depressant, especially well-known as a neuroleptic agent. The test animals are considered to be cataleptic when the homolateral extremities remain in the crossed position for at least 10 seconds. The number of cataleptic animals is recorded every 30 minutes over a 6-hour period.

[1] = tested on: homovanillinic acid (HVA); assay: Determination of homovanillinic acid (HVA) in brains of treated rats; dopamine turnover in the basal ganglions; type: in vivo; conditions: for Increase of HVA, %: two hours before killing, untreated rats set at 100%; for activity in HVA test compared with chlorpromazine (in words): p.o., in comparison to chlorpromazine
Protocol: I. determination of Homovanillinic Acid
Two hours prior to being killed, rats are injected with the test substance.
Thereafter, the homovanillinic acid is extracted from the supernatent portion of a homogenized mixture of brains of the treated rats into butylacetate and later into an aqueous solution and is oxidized with potassium ferric cyanide to a fluorescent […]. […] The homovanillinic titer in untreated rats is arbitrarily set at 100%.

| Structure (SMILES) | ED50 at 6 h (in vivo) [mg/kg] | cataleptic effect (in words) (in vivo) | Increase of HVA, % ([1]; 20 mg/kg p.o.) [%] | Increase of HVA, % ([1]; 50 mg/kg p.o.) [%] | activity in HVA test compared with chlorpromazine (in words) [1] | Increase of HVA, % ([1]; 30 mg/kg p.o.) [%] |
| --- | --- | --- | --- | --- | --- | --- |
| CN(C)CCCN1c2ccccc2Sc2ccc(Cl)cc21 [Chlorpromazine, reference compound] | 6 | does demonstrate cataleptic effects | 321 | – | – | – |
| CSc1ccc2c(c1)C(C#CCN(C)C)=Cc1ccccc1S2.O=C(O)/C=C\C(=O)O [Product A, N,N-dimethyl-3-[8-(methylthio)-dibenzo[b,f]thiepin-10-yl]-2-propynylamine maleate] | > 100 | no or, respectively, very weak cataleptic effect | – | 330 | as strong an activity as chlorpromazine | – |
| CN(C)CC#CC1=Cc2ccccc2Sc2ccc(Cl)cc21.O=C(O)/C=C\C(=O)O [Product B, N,N-dimethyl-3-(8-chloro-dibenzo[b,f]thiepin-10-yl)-2-propynylamine maleate] | 100 | no or, respectively, very weak cataleptic effect | – | 370 | as strong an activity as chlorpromazine | – |
| COc1ccc2c(c1)Sc1ccc(Cl)cc1C(C#CCN(C)C)=C2.CS(=O)(=O)O [Product C, N,N-dimethyl-3-(8-chloro-3-methoxydibenzo[b,f]thiepin-10-yl)-2-propynylamine methanesulfonate] | > 100 | no or, respectively, very weak cataleptic effect | – | – | as strong an activity as chlorpromazine | 320 |

— US4035386A, “Propynylamine-substituted dibenzo[b,f]thiepins and dibenz[b,f]oxepins” (Hoffmann-La Roche Inc., priority 1976, dated 1977)
